Experimental data as given in patent publication US20250296959A1, “B7-H3 TARGETING PEPTIDES AND CONSTRUCTS THEREOF” (Mariana Oncology Inc., priority 2024, published 2025).
Like-named read-outs stand apart in the source and are kept apart here. Starred links: 1 amine or outer side, 2 acyl side, 3 side chain; linkers in the order of their positions; H or OH if unused. Positions of bridges follow the written chain, without caps; N, C: chain ends. Non-standard residues stand in square brackets, D forms with d. Residues, ends and D or L forms follow the SMILES beside them. Groups on a side chain read outwards from the residue. *: point of attachment. X6 = CSCC[C@H](NC(=O)c1ccc(CNC(=O)CN2CCN(CC(=O)O)CCN(CC(=O)O)CCN(CC(=O)O)CC2)cc1)C(=O)N[C@H](C(=O)N[C@@H](CCCCN*)C(=O)O)C(C)C; Ala(1-CH2CO2H-4-piperidyl) = N[C@@H](CC1CCN(CC(=O)O)CC1)C(=O)O; Ala(piperidin-4-yl) = O=C([C@H](CC1CCN([*:3])CC1)N[*:1])[*:2]; Phe(3-CH2NH2) = O=C([C@H](Cc1cccc(CN[*:3])c1)N[*:1])[*:2]; DOTA = O=C(O)CN1CCN(CC(=O)O)CCN(CC(=O)*)CCN(CC(=O)O)CC1; X5 = O=C(O)CC1CCN(CC(=O)O)CCN(CC(=O)O)CCN(CC(=O)*)CC1; NH(CH2CH2O)4CH2CO = O=C(COCCOCCOCCOCCN[*:1])[*:2]; Trp(5-F) = N[C@@H](Cc1c[nH]c2ccc(F)cc12)C(=O)O; X1 = C[C@@H](c1ccccc1)[C@H](N[*:1])C(=O)[*:2]; Phe(4-F) = N[C@@H](Cc1ccc(F)cc1)C(=O)O; γGlu = O=C(O)[C@H](CCC(=O)[*:2])N[*:1]; 1Nal = N[C@@H](Cc1cccc2ccccc12)C(=O)O; Ala(4-THP) = N[C@@H](CC1CCOCC1)C(=O)O; Val(3-OH) = CC(C)(O)[C@H](N)C(=O)O; 4Pal = N[C@@H](Cc1ccncc1)C(=O)O; Tle = CC(C)(C)[C@H](N)C(=O)O; hLeu = CC(C)CC[C@H](N)C(=O)O; αMeK = C[C@](N)(CCCCN)C(=O)O; Nle = CCCC[C@H](N)C(=O)O

Molecular target: T1, human 4lg B7-H3 (Homo sapiens, UniProt Q5ZPR3)
T1 sequence (Q5ZPR3 29-534): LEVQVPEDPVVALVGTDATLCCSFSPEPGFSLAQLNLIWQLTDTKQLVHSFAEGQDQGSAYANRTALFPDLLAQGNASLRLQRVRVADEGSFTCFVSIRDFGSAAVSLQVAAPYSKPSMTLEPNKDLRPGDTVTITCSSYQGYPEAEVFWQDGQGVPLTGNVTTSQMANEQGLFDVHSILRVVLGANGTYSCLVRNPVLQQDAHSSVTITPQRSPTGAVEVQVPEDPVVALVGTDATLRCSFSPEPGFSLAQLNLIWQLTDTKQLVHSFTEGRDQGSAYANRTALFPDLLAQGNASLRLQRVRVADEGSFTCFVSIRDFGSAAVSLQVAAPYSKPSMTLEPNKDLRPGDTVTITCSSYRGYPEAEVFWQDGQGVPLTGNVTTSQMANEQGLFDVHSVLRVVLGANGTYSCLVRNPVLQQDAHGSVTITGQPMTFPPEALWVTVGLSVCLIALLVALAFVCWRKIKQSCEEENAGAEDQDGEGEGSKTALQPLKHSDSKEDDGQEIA
Experiment: Affinity determination by surface plasmon resonance (SPR) to 4Ig B7-H3
Conditions: 4Ig B7-H3

[1] = SPR KD—37° C., 37° C. flow cell temperature
[2] = SPR KD—25° C., 25° C. flow cell temperature

Row | Compound | Kd [1] | Kd [2] | Kd (read-out: SPR KD—37° C., 37° C. flow cell temperature)
1 | CCCC[C@H](NC(C)=O)C(=O)N[C@@H](Cc1ccc(O)cc1)C(=O)N[C@H]1CSSC[C@@H](C(=O)N[C@@H](Cc2c[nH]c3ccccc23)C(=O)N[C@@H](Cc2ccccc2)C(=O)N[C@@H](CCC(=O)N[C@H](CCCCNC(=O)CN2CCN(CC(=O)O)CCN(CC(=O)O)CCN(CC(=O)O)CC2)C(N)=O)C(=O)O)NC(=O)[C@H](Cc2ccc(O)cc2)NC(=O)[C@H](C(C)C)NC(=O)[C@H](CC(=O)O)NC(=O)[C@H](Cc2ccc(O)cc2)NC(=O)[C@H](CCCCN)NC(=O)CNC(=O)[C@H](C(C)C)NC1=O [compound 31, Ac-Nle-Y-C-V-G-K-Y-D-V-Y-C-W-F-gE-dLys(DOTA)-CONH2] (Ac-[Nle]YCVGKYDVYCWF[γGlu][dK](DOTA)-NH2; disulfide 3-11) | 0.1 to 0.3 µM |  | 
2 | CCCC[C@@H]1NC(=O)[C@@H](NC(=O)[C@H](Cc2ccc(O)cc2)NC(=O)[C@H](CCC(C)C)NC(C)=O)CSSC[C@@H](C(=O)N[C@@H](Cc2c[nH]c3ccc(F)cc23)C(=O)N[C@@H](Cc2ccccc2)C(=O)N[C@H](C(=O)N[C@H](CCCCNC(=O)CN2CCN(CC(=O)O)CCN(CC(=O)O)CCN(CC(=O)O)CC2)C(N)=O)[C@@H](C)O)NC(=O)[C@H](Cc2ccc(O)cc2)NC(=O)[C@H](C(C)C)NC(=O)[C@H](CC(=O)O)NC(=O)[C@H](Cc2ccc(O)cc2)NC(=O)[C@H](CCCCN)NC(=O)CNC1=O [compound 217, Ac-hLeu-Y-C-Nle-G-K-Y-D-V-Y-C-5FW-F-Thr-dLys(DOTA)-CONH2] (Ac-[hLeu]YC[Nle]GKYDVYC[Trp(5-F)]FT[dK](DOTA)-NH2; disulfide 3-11) |  | 0.001 to 0.01 µM | 
3 | CC(=O)N[C@@H](CCC(C)C)C(=O)N[C@@H](Cc1ccc(O)cc1)C(=O)N[C@H]1CSSC[C@@H](C(=O)N[C@@H](Cc2c[nH]c3ccc(F)cc23)C(=O)N[C@@H](Cc2ccccc2)C(=O)N[C@H](C(=O)N[C@H](CCCCNC(=O)CN2CCN(CC(=O)O)CCN(CC(=O)O)CCN(CC(=O)O)CC2)C(=O)O)C(C)(C)O)NC(=O)[C@H](Cc2ccc(O)cc2)NC(=O)[C@H](C(C)C)NC(=O)[C@H](CC(=O)O)NC(=O)[C@H](CC2CCC(O)CC2)NC(=O)[C@H](CC2CCNCC2)NC(=O)CNC(=O)[C@H](C(C)(C)C)NC1=O (single isomer, unassigned) [compound 480, Ac-hLeu-Y-C-Tbg-G-PipAla-4OHCha(pk2)-D-V-Y-C-5FW-F-hydroxyVal-dLys(DOTA)-COOH] |  |  | < 0.001 µM
4 | CC(=O)N[C@@H](CCC(C)C)C(=O)N[C@@H](Cc1ccc(O)cc1)C(=O)N[C@H]1CSSC[C@@H](C(=O)N[C@@H](Cc2c[nH]c3ccccc23)C(=O)N[C@@H](Cc2ccccc2)C(=O)N[C@H](C(=O)N[C@H](CCCCNC(=O)CN2CCN(CC(=O)O)CCN(CC(=O)O)CCN(CC(=O)O)CC2)C(N)=O)[C@@H](C)O)NC(=O)[C@H](Cc2ccc(O)cc2)NC(=O)[C@H](C(C)C)NC(=O)[C@H](CC(=O)O)NC(=O)[C@H](Cc2ccc(O)cc2)NC(=O)[C@H](CCCCN)NC(=O)CNC(=O)[C@H](C(C)(C)O)NC1=O [compound 122, Ac-hLeu-Y-C-hydroVal-G-K-Y-D-V-Y-C-W-F-Thr-dLys(DOTA)-CONH2] (Ac-[hLeu]YC[Val(3-OH)]GKYDVYCWFT[dK](DOTA)-NH2; disulfide 3-11) |  | 0.01 to 0.1 µM | 
5 | CCCC[C@H](NC(C)=O)C(=O)N[C@@H](Cc1ccc(O)cc1)C(=O)N[C@H]1CSSC[C@@H](C(=O)N[C@@H](Cc2c[nH]c3ccccc23)C(=O)N[C@@H](Cc2ccccc2)C(=O)N[C@H](C(=O)N[C@H](CCCCNC(=O)CN2CCC(CC(=O)O)CCN(CC(=O)O)CCN(CC(=O)O)CC2)C(N)=O)[C@@H](C)O)NC(=O)[C@H](Cc2ccc(O)cc2)NC(=O)[C@H](C(C)C)NC(=O)[C@H](CC(=O)O)NC(=O)[C@H](Cc2ccc(O)cc2)NC(=O)[C@H](CCCCN)NC(=O)CNC(=O)[C@H](C(C)C)NC1=O (stereo partly drawn) [Cpd #27, Ac-Nle-Y-C-V-G-K-Y-D-V-Y-C-W-F-Thr-dLys(DOTA)-CONH2] (Ac-[Nle]YCVGKYDVYCWFT[dK](X5)-NH2; disulfide 3-11) | 0.001 to 0.01 µM | 0.001 to 0.01 µM | 
6 | CC(=O)N[C@@H](CCC(C)C)C(=O)N[C@@H](Cc1ccc(O)cc1)C(=O)N[C@H]1CSSC[C@@H](C(=O)N[C@@H](Cc2c[nH]c3ccc(F)cc23)C(=O)N[C@@H](Cc2ccccc2)C(=O)N[C@H](C(N)=O)C(C)(C)O)NC(=O)[C@H](Cc2ccc(O)cc2)NC(=O)[C@H](C(C)C)NC(=O)[C@H](CC(=O)O)NC(=O)[C@H](Cc2ccncc2)NC(=O)[C@H](CCCCNC(=O)CN2CCN(CC(=O)O)CCN(CC(=O)O)CCN(CC(=O)O)CC2)NC(=O)CNC(=O)[C@H](C(C)C)NC1=O [compound 229, Ac-hLeu-Y-C-V-G-Lys(DOTA)-4PyA-D-V-Y-C-5FW-F-hydroxyVal-CONH2] (Ac-[hLeu]YCVGK(DOTA)[4Pal]DVYC[Trp(5-F)]F[Val(3-OH)]-NH2; disulfide 3-11) |  | < 0.001 µM | 
7 | CC(=O)N[C@@H](CCC(C)C)C(=O)N[C@@H](Cc1ccc(O)cc1)C(=O)N[C@H]1CSSC[C@@H](C(=O)N[C@@H](Cc2c[nH]c3ccc(F)cc23)C(=O)N[C@@H](Cc2ccccc2)C(=O)N[C@H](C(=O)N[C@H](CCCCNC(=O)CN2CCN(CC(=O)O)CCN(CC(=O)O)CCN(CC(=O)O)CC2)C(=O)O)[C@@H](C)O)NC(=O)[C@H](Cc2ccc(O)cc2)NC(=O)[C@H](C(C)C)NC(=O)[C@H](CC(=O)O)NC(=O)[C@H](CC2CCOCC2)NC(=O)[C@](C)(CCCCN)NC(=O)CNC(=O)[C@H](C(C)(C)C)NC1=O [compound 353, Ac-hLeu-Y-C-Tbg-G-aMeLys-ThpA-D-V-Y-C-5FW-F-Thr-dLys(DOTA)-COOH] (Ac-[hLeu]YC[Tle]G[αMeK][Ala(4-THP)]DVYC[Trp(5-F)]FT[dK](DOTA)-OH; disulfide 3-11) |  | 0.1 to 0.3 µM | 
8 | CSCC[C@H](NC(=O)c1ccc(CNC(=O)CN2CCN(CC(=O)O)CCN(CC(=O)O)CCN(CC(=O)O)CC2)cc1)C(=O)N[C@H](C(=O)N[C@@H](CCCCNC(=O)CC[C@@H]1NC(=O)[C@H](CC2CCNCC2)NC(=O)CNC(=O)[C@H](C(C)(C)C)NC(=O)[C@@H](NC(=O)[C@H](Cc2ccc(O)cc2)NC(=O)[C@H](CCC(C)C)NC(C)=O)CSSC[C@@H](C(=O)N[C@@H](Cc2c[nH]c3ccc(F)cc23)C(=O)N[C@H](C(=O)N[C@H](C(=O)N[C@H](CO)C(=O)O)C(C)(C)O)[C@@H](C)c2ccccc2)NC(=O)[C@H](Cc2ccc(O)cc2)NC(=O)[C@H](C(C)C)NC(=O)[C@H](CC(=O)O)NC1=O)C(=O)O)C(C)C [Cpd #518, Ac-hLeu-Y-C-Tbg-G-PipAla-Glu[&Lys(OH)-Val-Met-AmBz-DOTA]-D-V-Y-C-5FW-[(2S, 3S)beta-Me-Phe]-hydroxyVal-dSer-COOH] (Ac-[hLeu]YC[Tle]G[Ala(piperidin-4-yl)]E(X6)DVYC[Trp(5-F)][X1][Val(3-OH)][dS]-OH; disulfide 3-11) | < 0.001 µM |  | 
9 | CC(=O)N[C@@H](CCC(C)C)C(=O)N[C@@H](Cc1ccc(O)cc1)C(=O)N[C@H]1CSSC[C@@H](C(=O)N[C@@H](Cc2cccc3ccccc23)C(=O)N[C@@H](Cc2ccccc2)C(=O)N2CCC[C@H]2C(N)=O)NC(=O)[C@H](Cc2ccc(O)cc2)NC(=O)[C@H](C(C)C)NC(=O)[C@H](CC(=O)O)NC(=O)[C@H](Cc2cccc(CNC(=O)CC[C@H](NC(=O)CC[C@H](NC(=O)CN3CCN(CC(=O)O)CCN(CC(=O)O)CCN(CC(=O)O)CC3)C(=O)O)C(=O)O)c2)NC(=O)[C@H](CCCCN)NC(=O)CNC(=O)[C@H](C(C)(C)C)NC1=O [compound 255, Ac-hLeu-Y-C-Tbg-G-K-MAF(gE-gE-DOTA)-D-V-Y-C-1Nal-F-Pro-CONH2] (Ac-[hLeu]YC[Tle]GK[Phe(3-CH2NH2)]([γGlu-γGlu-DOTA])DVYC[1Nal]FP-NH2; disulfide 3-11) |  | 0.001 to 0.01 µM | 
10 | CC(C)CC[C@H](NC(=O)COCCOCCOCCOCCNC(=O)CN1CCN(CC(=O)O)CCN(CC(=O)O)CCN(CC(=O)O)CC1)C(=O)N[C@@H](Cc1ccc(F)cc1)C(=O)N[C@H]1CSSC[C@@H](C(=O)N[C@@H](Cc2cccc3ccccc23)C(=O)N[C@@H](Cc2ccccc2)C(=O)N2CCC[C@H]2C(N)=O)NC(=O)[C@H](Cc2ccc(O)cc2)NC(=O)[C@H](C(C)C)NC(=O)[C@H](CC(=O)O)NC(=O)[C@H](CC2CCOCC2)NC(=O)[C@H](CC2CCNCC2)NC(=O)CNC(=O)[C@H](C(C)(C)C)NC1=O [compound 283, DOTA-PEG4-hLeu-4FPhe-C-Tbg-G-PipAla-ThpA-D-V-Y-C-1Nal-F-Pro-CONH2] ({DOTA}-[NH(CH2CH2O)4CH2CO][hLeu][Phe(4-F)]C[Tle]G[Ala(piperidin-4-yl)][Ala(4-THP)]DVYC[1Nal]FP-NH2; disulfide 4-12) |  | 0.01 to 0.1 µM | 
11 | CC(=O)N[C@@H](CCC(C)C)C(=O)N[C@@H](Cc1ccc(O)cc1)C(=O)N[C@H]1CSSC[C@@H](C(=O)N[C@@H](Cc2c[nH]c3ccc(F)cc23)C(=O)N[C@@H](Cc2ccccc2)C(=O)N[C@H](C(=O)N[C@H](CO)C(N)=O)C(C)(C)O)NC(=O)[C@H](Cc2ccc(O)cc2)NC(=O)[C@H](C(C)C)NC(=O)[C@H](CC(=O)O)NC(=O)[C@H](CC2CCN(CC(=O)O)CC2)NC(=O)[C@H](CCCCNC(=O)CN2CCN(CC(=O)O)CCN(CC(=O)O)CCN(CC(=O)O)CC2)NC(=O)CNC(=O)[C@H](C(C)(C)C)NC1=O [compound 420, Ac-hLeu-Y-C-Tbg-G-Lys(DOTA)-Pip(CH2COOH)Ala-D-V-Y-C-5FW-F-hydroxyVal-dSer-CONH2] (Ac-[hLeu]YC[Tle]GK(DOTA)[Ala(1-CH2CO2H-4-piperidyl)]DVYC[Trp(5-F)]F[Val(3-OH)][dS]-NH2; disulfide 3-11) | 0.001 to 0.01 µM |  | 
